Results: ChEMBL document CHEMBL1152560, “Substituted 2-arylbenzothiazoles as kinase inhibitors: hit-to-lead optimization” (Bioorg Med Chem, 2009)

How the values were obtained:
[1] = target: Serine/threonine-protein kinase N2 (Homo sapiens) (UniProt Q16513); experiment: Residual activity of PRK2 at 1 uM by microplate scintillation counting
[2] = target: T1, Tyrosine-protein kinase JAK3 (Homo sapiens) (UniProt P52333); experiment: Residual activity of JAK3 at 0.1 uM by microplate scintillation counting
T1 sequence (whole entry): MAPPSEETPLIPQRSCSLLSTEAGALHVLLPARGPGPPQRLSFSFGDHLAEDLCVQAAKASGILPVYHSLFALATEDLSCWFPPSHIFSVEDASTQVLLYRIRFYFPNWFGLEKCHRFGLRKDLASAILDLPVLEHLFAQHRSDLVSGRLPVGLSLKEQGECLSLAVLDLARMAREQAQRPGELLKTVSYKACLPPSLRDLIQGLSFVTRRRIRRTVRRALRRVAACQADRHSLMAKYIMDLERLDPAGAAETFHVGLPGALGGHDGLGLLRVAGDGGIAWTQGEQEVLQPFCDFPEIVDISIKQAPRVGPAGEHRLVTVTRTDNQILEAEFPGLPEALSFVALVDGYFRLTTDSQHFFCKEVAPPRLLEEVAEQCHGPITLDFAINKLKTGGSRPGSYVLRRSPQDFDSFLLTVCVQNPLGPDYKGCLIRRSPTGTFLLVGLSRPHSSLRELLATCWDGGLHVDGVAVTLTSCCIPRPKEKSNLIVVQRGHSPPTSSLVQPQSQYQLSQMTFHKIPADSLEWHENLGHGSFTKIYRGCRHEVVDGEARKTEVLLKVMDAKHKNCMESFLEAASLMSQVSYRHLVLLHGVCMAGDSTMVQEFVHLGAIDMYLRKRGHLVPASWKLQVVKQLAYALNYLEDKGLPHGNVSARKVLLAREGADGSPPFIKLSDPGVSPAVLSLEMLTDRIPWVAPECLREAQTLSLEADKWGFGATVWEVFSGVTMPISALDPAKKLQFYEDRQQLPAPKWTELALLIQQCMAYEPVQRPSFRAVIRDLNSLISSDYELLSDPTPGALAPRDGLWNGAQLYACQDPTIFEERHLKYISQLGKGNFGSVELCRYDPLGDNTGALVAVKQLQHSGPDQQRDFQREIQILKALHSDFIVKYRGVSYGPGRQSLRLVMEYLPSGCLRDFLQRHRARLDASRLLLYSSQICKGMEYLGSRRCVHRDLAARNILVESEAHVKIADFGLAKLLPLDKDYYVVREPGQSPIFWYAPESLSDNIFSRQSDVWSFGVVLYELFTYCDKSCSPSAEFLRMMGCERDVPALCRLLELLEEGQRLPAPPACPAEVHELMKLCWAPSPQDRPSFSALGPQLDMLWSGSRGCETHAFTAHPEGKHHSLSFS

[3] = target: CDK1/Cyclin A (Homo sapiens) (UniProt P06493+P20248); experiment: Residual activity of CDK1/Cyclin A at 0.1 uM by microplate scintillation counting; assay type: protein-complex assay
Sequence of CDK1/Cyclin A (Homo sapiens) (P06493 whole entry, looked up): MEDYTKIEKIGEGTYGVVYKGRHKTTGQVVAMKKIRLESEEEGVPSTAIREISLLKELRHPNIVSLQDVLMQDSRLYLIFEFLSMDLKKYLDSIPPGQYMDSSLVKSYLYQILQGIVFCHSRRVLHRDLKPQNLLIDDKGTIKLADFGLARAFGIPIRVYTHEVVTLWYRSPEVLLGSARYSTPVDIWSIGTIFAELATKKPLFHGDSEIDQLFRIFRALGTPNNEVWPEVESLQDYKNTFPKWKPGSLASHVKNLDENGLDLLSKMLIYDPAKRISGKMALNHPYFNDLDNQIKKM
Sequence of CDK1/Cyclin A (Homo sapiens) (P20248 whole entry, looked up): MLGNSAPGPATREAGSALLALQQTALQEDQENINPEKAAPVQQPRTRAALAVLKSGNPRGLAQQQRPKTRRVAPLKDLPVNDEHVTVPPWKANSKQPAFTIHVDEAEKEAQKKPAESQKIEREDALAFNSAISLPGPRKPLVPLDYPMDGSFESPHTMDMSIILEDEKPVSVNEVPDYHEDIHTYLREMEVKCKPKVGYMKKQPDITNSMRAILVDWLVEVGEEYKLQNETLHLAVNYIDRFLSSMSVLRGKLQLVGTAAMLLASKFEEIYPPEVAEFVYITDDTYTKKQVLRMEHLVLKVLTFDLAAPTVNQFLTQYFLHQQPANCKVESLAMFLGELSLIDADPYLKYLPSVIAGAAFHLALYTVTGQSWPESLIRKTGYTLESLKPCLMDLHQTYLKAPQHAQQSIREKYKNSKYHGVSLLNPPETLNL

[4] = target: CDK6/cyclin D1 (Homo sapiens) (UniProt P24385+Q00534); experiment: Residual activity of CDK6/Cyclin D1 at 1 uM by microplate scintillation counting; assay type: protein-complex assay
[5] = test system: Epidermal growth factor receptor (Homo sapiens), P00533 [L858R,T790M]; experiment: Residual activity of EGFR T790M/L858R at 1 uM by microplate scintillation counting
[6] = target: T2, MAP kinase-activated protein kinase 5 (Homo sapiens) (UniProt Q8IW41); experiment: Residual activity of MAPKAPK5 at 1 uM by microplate scintillation counting
T2 sequence (whole entry): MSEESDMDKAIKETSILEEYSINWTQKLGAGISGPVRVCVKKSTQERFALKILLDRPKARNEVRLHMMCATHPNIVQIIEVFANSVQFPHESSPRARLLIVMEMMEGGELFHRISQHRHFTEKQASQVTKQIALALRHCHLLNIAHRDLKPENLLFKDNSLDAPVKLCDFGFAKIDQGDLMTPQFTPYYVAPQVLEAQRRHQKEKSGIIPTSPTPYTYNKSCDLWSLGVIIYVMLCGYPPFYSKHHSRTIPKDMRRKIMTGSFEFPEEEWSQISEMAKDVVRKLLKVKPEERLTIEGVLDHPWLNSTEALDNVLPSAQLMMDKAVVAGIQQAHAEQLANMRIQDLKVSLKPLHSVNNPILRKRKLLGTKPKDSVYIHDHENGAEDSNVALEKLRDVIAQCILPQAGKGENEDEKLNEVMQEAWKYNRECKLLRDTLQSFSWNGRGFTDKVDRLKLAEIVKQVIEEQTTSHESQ

[7] = target: Dual specificity protein kinase CLK1 (Homo sapiens) (UniProt P49759); experiment: Residual activity of CLK1 at 0.1 uM by microplate scintillation counting
Sequence of Dual specificity protein kinase CLK1 (Homo sapiens) (P49759 whole entry, looked up): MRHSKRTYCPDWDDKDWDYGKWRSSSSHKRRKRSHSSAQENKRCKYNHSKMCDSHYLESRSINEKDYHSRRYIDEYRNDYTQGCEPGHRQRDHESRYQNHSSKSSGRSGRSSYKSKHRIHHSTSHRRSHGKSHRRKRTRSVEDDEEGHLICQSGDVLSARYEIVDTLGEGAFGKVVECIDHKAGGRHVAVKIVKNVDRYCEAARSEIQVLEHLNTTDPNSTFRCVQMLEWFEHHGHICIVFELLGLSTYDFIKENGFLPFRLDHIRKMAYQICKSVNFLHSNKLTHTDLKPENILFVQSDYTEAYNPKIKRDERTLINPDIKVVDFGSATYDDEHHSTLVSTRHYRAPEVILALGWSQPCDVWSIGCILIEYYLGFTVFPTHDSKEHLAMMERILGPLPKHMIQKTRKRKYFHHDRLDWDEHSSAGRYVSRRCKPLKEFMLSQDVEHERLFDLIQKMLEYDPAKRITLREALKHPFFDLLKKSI

[8] = target: Calcium/calmodulin-dependent protein kinase kinase 2 (Homo sapiens) (UniProt Q96RR4); experiment: Residual activity of CAMKK2 at 10 uM by microplate scintillation counting
Sequence of Calcium/calmodulin-dependent protein kinase kinase 2 (Homo sapiens) (Q96RR4 2-588 limits assumed): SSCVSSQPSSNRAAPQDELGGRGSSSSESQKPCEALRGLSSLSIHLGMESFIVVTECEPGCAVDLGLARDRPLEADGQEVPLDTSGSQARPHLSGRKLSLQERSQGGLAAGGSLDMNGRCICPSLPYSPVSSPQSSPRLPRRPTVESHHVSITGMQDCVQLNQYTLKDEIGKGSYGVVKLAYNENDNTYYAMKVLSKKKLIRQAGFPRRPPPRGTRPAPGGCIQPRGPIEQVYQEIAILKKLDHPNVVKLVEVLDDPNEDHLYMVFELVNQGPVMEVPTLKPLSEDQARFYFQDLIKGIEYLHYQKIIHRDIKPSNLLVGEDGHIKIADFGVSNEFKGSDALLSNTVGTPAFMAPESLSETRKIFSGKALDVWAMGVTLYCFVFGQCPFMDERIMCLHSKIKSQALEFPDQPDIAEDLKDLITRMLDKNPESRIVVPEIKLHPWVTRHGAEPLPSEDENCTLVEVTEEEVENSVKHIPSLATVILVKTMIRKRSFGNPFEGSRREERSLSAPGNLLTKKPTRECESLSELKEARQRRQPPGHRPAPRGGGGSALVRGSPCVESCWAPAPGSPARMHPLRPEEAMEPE

[9] = target: T3, Tyrosine-protein kinase receptor TYRO3 (Homo sapiens) (UniProt Q06418); experiment: Residual activity of TYRO3 at 1 uM by microplate scintillation counting
T3 sequence (whole entry): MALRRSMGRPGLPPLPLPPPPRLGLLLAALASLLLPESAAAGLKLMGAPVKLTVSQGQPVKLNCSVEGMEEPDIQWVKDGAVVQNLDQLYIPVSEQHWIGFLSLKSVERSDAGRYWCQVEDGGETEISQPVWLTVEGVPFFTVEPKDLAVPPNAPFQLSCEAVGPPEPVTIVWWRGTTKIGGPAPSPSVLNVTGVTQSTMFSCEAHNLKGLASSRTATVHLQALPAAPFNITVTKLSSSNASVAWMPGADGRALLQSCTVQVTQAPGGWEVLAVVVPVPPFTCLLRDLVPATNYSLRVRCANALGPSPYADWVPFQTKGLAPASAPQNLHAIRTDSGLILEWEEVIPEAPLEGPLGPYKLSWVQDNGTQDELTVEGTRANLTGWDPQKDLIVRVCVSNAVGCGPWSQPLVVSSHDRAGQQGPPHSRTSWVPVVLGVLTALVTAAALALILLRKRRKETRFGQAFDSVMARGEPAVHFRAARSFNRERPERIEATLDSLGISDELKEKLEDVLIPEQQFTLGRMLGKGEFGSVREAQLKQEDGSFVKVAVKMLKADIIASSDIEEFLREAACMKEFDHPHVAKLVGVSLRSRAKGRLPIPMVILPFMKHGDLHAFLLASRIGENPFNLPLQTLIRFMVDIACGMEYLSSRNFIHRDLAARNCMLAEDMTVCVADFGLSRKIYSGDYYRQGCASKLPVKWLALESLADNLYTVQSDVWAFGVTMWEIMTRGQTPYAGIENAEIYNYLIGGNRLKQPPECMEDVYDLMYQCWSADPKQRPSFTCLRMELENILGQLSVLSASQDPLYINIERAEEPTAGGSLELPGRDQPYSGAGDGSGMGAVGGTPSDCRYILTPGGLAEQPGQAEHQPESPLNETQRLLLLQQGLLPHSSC

[10] = target: Cyclin-dependent kinase 2/cyclin E1 (Homo sapiens) (UniProt P24864+P24941); experiment: Residual activity of CDK2/Cyclin E at 10 uM by microplate scintillation counting; assay type: protein-complex assay

Sequence of Serine/threonine-protein kinase N2 (Homo sapiens) (Q16513 whole entry, looked up): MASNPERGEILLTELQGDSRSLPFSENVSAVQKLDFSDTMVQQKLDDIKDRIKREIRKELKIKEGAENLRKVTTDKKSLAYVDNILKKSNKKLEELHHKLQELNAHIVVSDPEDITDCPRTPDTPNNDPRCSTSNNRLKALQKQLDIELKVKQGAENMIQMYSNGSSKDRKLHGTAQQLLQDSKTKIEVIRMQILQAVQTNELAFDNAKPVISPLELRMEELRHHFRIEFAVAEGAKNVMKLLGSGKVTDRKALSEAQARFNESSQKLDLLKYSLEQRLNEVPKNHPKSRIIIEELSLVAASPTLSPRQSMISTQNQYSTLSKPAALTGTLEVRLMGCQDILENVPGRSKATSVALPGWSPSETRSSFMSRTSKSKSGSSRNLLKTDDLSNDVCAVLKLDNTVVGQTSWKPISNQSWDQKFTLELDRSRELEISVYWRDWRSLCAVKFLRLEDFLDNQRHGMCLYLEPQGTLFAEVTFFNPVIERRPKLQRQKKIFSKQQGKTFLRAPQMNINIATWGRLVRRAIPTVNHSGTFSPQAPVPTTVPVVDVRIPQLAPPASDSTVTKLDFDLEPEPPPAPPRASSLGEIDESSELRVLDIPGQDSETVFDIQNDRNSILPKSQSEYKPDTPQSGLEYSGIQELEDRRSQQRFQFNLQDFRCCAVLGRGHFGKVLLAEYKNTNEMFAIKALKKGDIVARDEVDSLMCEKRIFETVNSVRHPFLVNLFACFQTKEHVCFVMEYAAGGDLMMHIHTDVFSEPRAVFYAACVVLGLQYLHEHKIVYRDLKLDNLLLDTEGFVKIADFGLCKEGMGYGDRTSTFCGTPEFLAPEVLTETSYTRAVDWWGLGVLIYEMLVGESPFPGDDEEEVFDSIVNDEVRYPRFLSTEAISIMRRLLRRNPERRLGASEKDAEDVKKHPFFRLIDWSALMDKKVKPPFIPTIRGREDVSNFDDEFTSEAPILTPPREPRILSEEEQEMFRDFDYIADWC

Row | residual activity [1] [%] | residual activity [2] [%] | residual activity [3] [%] | residual activity [4] [%] | residual activity [5] [%] | residual activity [6] [%] | residual activity [7] [%] | residual activity [8] [%] | residual activity [9] [%] | residual activity [10] [%] | SMILES
1 | 97 | 98 | 109 | 104 | 100 | 90 | 114 | 97 | 103 | 116 | COc1cc2c(Oc3ccc(-c4nc5ccccc5s4)cc3)ncnc2cc1OCCCN1CCCC1
2 | 66 | 95 | 94 | 109 | 103 | 107 | 94 | 109 | 100 | 186 | COc1cc2c(Oc3ccc(-c4nc5ccccc5s4)cc3)ncnc2cc1OCCCN1CCN(C)CC1
3 | 70 | 90 | 99 | 100 | 99 | 90 | 96 | 112 | 103 | 194 | COc1cc2c(Oc3ccc(-c4nc5ccccc5s4)cc3F)ncnc2cc1OCCCN1CCN(C)CC1
